Reference: publication PMC5880808, “A lever-like transduction pathway for long-distance chemical- and mechano-gating of the mechanosensitive Piezo1 channel” (Nature Communications, 2018)
pEC50: −log10 of the molar value.

How the values were obtained:
mPiezo1 = molecular target: T1, mPiezo1 (Mus musculus, UniProt E2JF22); assay: FLIPR GCAMP6s Ca2+ response of transfected HEK293T cells; type: cell-based; conditions: for pEC50: Boltzmann fit, vector signal subtracted
T1 construct: The full-length mPiezo1 has 2547 amino acids in each monomer; expressed in transfected cells; host or cells: HEK293T
Source text: Pharmacological compounds are invaluable tools for probing the structure-function relationship of ion channels. To identify specific chemical activators of Piezo channels, we have used the fluorescent imaging plate reader (FLIPR) in a 96-well format to screen about 3000 compounds for those that can evoke Ca^2+ increase in human embryonic kidney 293T (HEK293T) cells co-transfected with either mPiezo1 or mPiezo2, and the genetically encoded Ca^2+ reporter GCAMP6s (high Ca^2+ sensitivity but slow kinetics)[43]. We initially selected compounds that evoked Ca^2+ response in either Piezo1- or Piezo2-transfected cells and subsequently ruled out those nonspecific hits that caused Ca^2+ response in Piezo1-, Piezo2-, and vector-transfected cells (Fig. 2a). Eventually, we identified Jedi1 and Jedi2 as Piezo1 chemical activators, but no specific Piezo2 activators.
(§1) HEK293T cells were grown in Dulbecco’s modified Eagle medium containing 4.5 mg/ml glucose, 10% fetal bovine serum, and 1% penicillin/streptomycin. Cells were seeded in 50 μg/ml poly-D-lysine-coated 96-well plates (3 × 10^4 cells/well) and allowed to grow for about 18 h, and then co-transfected with a total of 250 ng cDNA containing Piezo1 or Piezo2 and GCaMP6s using Lipofectamine 2000 (Invitrogen, Life Technology). Two days after transfection the cells were washed with buffer containing 1× Hanks’ balanced salt solution (HBSS; 1.3 mM Ca^2+) and 10 mM HEPES (pH 7.2). The 96-well plates were then transferred to the FLIPR Tetra (Molecular Device) for monitoring the GCAMP6s fluorescence before and after addition of the compounds that were prepared in separate compound plates. For the initial screening, we screened about 3000 compounds derived from either the chemical library collected in Dr. Yu Rao’s lab, which is composed of different classes of heterocycles, including various drug scaffold or the Maybridge Ro3 Diversity Fragment Library purchased from Maybridge (Cambridge, UK), which consists of 2500 fragment compounds with a molecular weight below 350 and high rule of three compliance. Each compound was tested at a final concentration of 200 μM. Approximately 20 positive hits were selected for further testing in Piezo1-, Piezo2-, or vector-transfected cells. For subsequent characterizations, Jedi1 was purchased from the company of Alfa Aesar, while Jedi2 and Yoda1 were synthesized in the laboratories of Drs. Wei He and Liansuo Zu, respectively. See the Supplementary Experiment Procedures for the chemical synthesis. The dose response measurement by FLIPR was similar to previously described.

[1] = test system: mPiezo1 loop deletion mutants ΔL15-16 (657-677) and ΔL19-20 (870–921); assay: FLIPR GCAMP6s Ca2+ dose response, loop deletion mutants; type: cell-based, mouse; conditions: ΔL15-16 and ΔL19-20, FLIPR
Experimental: as §1, with “For subsequent characterizations, Jedi1 was purchased from the company of Alfa Aesar, while Jedi2 and Yoda1 were synthesized in the laboratories of Drs. Wei He and Liansuo Zu, respectively. See the Supplementary Experiment Procedures for the chemical synthesis. The dose response measurement by FLIPR was similar to previously described.” left out

[2] = test system: mPiezo1 mutants L1342A/L1345A; L1342D/L1345D; L1342S/L1345S; L1342A; L1345A; assay: Single-cell Ca2+ imaging or FLIPR, L1342/L1345 mutants; type: cell-based, mouse; conditions: all five mutants, 1 mM Jedi1, 30 μM Yoda1
Experimental: HEK293T cells were grown in Dulbecco’s modified Eagle medium containing 4.5 mg/ml glucose, 10% fetal bovine serum, and 1% penicillin/streptomycin. Cells were seeded in 50 μg/ml poly-D-lysine-coated 96-well plates (3 × 10^4 cells/well) and allowed to grow for about 18 h, and then co-transfected with a total of 250 ng cDNA containing Piezo1 or Piezo2 and GCaMP6s using Lipofectamine 2000 (Invitrogen, Life Technology). Two days after transfection the cells were washed with buffer containing 1× Hanks’ balanced salt solution (HBSS; 1.3 mM Ca^2+) and 10 mM HEPES (pH 7.2). The 96-well plates were then transferred to the FLIPR Tetra (Molecular Device) for monitoring the GCAMP6s fluorescence before and after addition of the compounds that were prepared in separate compound plates. […]
Fura-2 single-cell Ca^2+ imaging was performed according to the previous protocol. […] The coverslip was mounted into an inverted Nikon-Tie microscope equipped with a CoolSNAP charge-coupled devise (CCD) camera and Lambda XL light box (Sutter Instrument), and mCherry-positive and -negative cells were selected for measurement of the 340/380 ratio with a ×20 objective (numerical aperture 0.75) using the MetaFluor Fluorescence Ratio Imaging software (Molecular Device).

[3] = parameters: method as in PMID 26001275; conditions: up; cited from earlier work
Piezo1 = test system: Piezo1; parameters: method as in PMID 26001275; conditions: read-out: estimated EC50; cited from earlier work
[4] = test system: mPiezo1 loop deletion mutants ΔL15-16 (657-677) and ΔL19-20 (870–921); parameters: method as in PMID 29469092; conditions: ΔL15-16 and ΔL19-20; cited from earlier work
[5] = test system: mPiezo1 loop deletion mutants ΔL15-16 (657-677) and ΔL19-20 (870–921); parameters: method as in PMID 29469092; conditions: ΔL15-16 and ΔL19-20; cited from earlier work; remark: listed apart in the source
Human Piezo1 (hPiezo1) = molecular target: T2, Human Piezo1 (hPiezo1) (Homo sapiens, UniProt Q92508); assay: Fura-2 single-cell Ca2+ imaging of hPiezo1-expressing cells; type: cell-based
T2 construct: expressed in transfected cells; host or cells: HEK293T
Experimental: Fura-2 single-cell Ca^2+ imaging was performed according to the previous protocol. In brief, mCherry-Piezo1 cDNA (1 μg)-transfected HEK293T cells were plated onto 12-mm round glass coverslips, which were coated with poly-D-lysine and placed in 24-well plates, and subject to Fura-2 single-cell Ca^2+ imaging about 36 h post transfection. Cells were washed with buffer containing 1× HBSS (1.3 mM Ca^2+) and 10 mM HEPES (pH 7.2), incubated with 2.5 μM Fura-2 and 0.05% Pluronic F-127 (Life Technologies) for 30 min, then washed again with the previously mentioned buffer. The coverslip was mounted into an inverted Nikon-Tie microscope equipped with a CoolSNAP charge-coupled devise (CCD) camera and Lambda XL light box (Sutter Instrument), and mCherry-positive and -negative cells were selected for measurement of the 340/380 ratio with a ×20 objective (numerical aperture 0.75) using the MetaFluor Fluorescence Ratio Imaging software (Molecular Device).

T1 sequence (E2JF22 whole entry): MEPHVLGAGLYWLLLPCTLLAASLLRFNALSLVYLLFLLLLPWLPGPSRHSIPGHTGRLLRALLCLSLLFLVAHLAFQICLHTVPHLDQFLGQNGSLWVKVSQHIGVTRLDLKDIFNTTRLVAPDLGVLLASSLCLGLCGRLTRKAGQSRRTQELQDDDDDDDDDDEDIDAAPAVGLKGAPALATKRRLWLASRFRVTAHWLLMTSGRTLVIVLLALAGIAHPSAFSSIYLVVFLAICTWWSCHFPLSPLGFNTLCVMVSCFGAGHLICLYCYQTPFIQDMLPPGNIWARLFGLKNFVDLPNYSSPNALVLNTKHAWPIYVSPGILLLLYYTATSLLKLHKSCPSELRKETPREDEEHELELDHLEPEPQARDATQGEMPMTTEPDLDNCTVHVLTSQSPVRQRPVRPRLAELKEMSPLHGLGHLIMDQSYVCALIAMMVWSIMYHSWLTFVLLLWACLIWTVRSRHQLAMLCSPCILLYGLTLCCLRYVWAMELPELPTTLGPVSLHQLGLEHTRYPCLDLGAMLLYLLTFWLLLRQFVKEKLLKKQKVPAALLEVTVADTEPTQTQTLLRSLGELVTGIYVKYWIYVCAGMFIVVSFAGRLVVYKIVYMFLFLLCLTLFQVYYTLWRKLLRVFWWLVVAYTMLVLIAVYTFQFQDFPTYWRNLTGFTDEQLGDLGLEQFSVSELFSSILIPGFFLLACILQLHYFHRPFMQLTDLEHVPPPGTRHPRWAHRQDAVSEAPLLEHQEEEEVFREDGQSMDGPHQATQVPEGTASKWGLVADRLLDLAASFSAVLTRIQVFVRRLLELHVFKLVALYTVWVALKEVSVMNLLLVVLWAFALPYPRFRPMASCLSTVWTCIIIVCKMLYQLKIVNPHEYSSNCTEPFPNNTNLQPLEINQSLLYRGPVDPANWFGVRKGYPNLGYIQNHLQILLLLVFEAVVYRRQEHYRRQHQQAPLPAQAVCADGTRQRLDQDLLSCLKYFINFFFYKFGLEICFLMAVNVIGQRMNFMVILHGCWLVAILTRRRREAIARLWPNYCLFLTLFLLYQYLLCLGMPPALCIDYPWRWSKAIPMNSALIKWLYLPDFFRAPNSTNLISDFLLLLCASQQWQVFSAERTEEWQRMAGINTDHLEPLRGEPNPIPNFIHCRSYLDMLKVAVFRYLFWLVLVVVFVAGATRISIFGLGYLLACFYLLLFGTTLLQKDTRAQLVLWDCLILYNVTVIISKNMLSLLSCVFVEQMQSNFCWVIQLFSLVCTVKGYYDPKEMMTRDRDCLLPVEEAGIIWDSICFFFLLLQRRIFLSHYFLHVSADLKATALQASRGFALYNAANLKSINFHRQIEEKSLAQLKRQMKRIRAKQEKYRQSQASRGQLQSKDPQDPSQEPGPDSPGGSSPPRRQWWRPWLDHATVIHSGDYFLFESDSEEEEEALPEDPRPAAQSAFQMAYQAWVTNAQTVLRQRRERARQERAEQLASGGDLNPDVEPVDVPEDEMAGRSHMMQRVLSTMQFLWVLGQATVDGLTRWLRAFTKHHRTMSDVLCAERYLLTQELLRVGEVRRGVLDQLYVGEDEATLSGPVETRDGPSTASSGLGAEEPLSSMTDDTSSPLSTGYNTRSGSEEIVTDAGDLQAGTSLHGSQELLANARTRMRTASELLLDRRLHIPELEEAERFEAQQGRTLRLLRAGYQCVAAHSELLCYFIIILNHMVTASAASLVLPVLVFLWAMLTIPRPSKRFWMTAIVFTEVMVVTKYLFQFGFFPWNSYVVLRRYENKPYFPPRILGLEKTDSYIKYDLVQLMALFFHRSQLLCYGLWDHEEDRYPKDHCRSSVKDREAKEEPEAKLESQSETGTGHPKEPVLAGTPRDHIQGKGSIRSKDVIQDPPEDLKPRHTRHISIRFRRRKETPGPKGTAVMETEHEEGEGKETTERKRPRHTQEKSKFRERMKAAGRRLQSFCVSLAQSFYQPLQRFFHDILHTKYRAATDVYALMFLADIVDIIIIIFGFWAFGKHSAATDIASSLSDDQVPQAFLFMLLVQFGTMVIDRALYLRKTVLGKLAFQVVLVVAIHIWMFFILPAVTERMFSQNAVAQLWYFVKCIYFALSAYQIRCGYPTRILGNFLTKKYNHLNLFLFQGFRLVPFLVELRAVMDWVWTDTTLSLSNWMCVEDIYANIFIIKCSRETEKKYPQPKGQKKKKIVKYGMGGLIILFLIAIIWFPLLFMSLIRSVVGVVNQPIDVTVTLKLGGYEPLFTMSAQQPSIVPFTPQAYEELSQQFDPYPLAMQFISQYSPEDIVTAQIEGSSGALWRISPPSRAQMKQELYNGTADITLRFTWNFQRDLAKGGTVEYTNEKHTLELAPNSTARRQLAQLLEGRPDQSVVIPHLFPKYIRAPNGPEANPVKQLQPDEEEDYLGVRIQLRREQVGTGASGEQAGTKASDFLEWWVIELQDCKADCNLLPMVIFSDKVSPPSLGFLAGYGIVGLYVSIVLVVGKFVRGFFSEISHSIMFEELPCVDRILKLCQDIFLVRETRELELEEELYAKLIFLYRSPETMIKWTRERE
T2 sequence (Q92508 whole entry): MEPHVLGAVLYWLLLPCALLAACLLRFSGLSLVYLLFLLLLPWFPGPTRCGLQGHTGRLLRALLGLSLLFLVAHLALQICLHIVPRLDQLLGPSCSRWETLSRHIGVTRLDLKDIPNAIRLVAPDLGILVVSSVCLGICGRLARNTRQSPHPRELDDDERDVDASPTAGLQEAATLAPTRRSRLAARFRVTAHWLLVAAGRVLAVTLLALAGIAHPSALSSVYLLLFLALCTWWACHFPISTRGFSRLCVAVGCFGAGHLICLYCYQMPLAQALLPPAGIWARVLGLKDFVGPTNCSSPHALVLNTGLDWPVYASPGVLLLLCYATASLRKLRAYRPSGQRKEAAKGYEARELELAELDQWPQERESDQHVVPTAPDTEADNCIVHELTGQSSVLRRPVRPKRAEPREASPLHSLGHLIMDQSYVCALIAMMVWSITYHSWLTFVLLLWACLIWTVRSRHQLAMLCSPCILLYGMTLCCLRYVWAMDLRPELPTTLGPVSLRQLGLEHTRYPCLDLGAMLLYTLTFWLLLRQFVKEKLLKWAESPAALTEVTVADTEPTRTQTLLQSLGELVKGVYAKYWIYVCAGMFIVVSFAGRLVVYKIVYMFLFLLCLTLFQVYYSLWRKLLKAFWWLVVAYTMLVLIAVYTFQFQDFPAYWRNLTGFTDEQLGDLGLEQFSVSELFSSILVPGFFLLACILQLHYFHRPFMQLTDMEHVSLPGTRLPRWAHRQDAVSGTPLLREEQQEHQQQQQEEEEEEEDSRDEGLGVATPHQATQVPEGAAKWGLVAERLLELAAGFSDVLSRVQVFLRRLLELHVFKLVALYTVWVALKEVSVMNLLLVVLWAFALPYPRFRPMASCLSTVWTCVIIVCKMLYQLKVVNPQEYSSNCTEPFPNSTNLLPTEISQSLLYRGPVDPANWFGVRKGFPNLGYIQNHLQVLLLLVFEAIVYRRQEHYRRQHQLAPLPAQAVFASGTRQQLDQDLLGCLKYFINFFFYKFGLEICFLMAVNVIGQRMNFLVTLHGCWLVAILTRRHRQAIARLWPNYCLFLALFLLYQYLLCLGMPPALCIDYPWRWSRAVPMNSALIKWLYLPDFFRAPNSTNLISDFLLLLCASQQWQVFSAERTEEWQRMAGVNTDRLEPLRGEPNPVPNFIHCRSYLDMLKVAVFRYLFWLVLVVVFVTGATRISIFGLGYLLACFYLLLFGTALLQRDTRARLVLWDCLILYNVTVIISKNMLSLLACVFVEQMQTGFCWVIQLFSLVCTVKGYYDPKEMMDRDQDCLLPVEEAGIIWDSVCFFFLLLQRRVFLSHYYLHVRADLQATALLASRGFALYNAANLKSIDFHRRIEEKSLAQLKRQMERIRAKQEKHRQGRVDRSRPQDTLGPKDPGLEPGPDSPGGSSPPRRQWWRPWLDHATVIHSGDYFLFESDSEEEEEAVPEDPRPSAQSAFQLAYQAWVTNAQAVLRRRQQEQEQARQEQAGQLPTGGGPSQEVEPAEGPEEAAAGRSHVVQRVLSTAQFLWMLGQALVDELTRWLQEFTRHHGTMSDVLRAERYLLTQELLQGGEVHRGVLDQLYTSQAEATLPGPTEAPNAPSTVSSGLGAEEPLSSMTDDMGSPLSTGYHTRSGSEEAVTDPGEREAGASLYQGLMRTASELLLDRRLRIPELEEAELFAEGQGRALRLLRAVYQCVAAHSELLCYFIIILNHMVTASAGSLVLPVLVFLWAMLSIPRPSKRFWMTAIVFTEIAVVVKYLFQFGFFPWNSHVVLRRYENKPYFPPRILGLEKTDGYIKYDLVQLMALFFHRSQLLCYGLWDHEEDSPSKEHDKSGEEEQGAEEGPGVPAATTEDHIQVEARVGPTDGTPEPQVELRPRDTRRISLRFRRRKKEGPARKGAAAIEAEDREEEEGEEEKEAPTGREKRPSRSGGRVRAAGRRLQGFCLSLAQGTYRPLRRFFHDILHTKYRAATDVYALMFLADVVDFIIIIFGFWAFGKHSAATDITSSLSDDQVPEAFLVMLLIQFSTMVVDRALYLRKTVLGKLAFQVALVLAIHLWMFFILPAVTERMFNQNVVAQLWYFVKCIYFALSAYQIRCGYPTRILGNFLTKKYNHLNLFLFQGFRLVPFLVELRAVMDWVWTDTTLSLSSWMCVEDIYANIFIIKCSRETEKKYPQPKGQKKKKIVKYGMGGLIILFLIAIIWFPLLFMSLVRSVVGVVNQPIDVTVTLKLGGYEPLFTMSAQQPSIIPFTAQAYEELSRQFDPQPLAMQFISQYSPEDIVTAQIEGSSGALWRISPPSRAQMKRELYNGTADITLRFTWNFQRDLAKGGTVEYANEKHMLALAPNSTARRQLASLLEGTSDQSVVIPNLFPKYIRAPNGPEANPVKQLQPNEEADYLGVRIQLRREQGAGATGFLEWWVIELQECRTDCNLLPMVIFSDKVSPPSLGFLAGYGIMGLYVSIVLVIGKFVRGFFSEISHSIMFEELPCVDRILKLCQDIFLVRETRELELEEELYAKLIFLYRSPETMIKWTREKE

Cc1oc(-c2cccs2)cc1C(=O)O [Jedi2]
Hill coefficient (mPiezo1): 1.6 | pEC50 (mPiezo1): 3.80 | Ca2+ response of loop deletion mutants [1]: no dose-dependent Ca^2+ responses

Clc1cccc(Cl)c1CSc1nnc(-c2cnccn2)s1 [Yoda1, reference compound]
compound-evoked Ca2+ responses of L1342/L1345 mutants [2]: completely lost | water solubility [3]: ~ 30 μM | pEC50 (Piezo1): ~4.77 | ability to evoke Ca2+ responses in loop deletion mutants [4]: retained its ability | ability to potentiate poking-induced currents of loop deletion mutants [5]: retained its ability

Cc1oc(-c2ccccc2)cc1C(=O)O [Jedi1]
Hill coefficient (mPiezo1): ~ 1.5 | pEC50 (mPiezo1): ~3.70 | Ca2+ response (Fura-2) (Human Piezo1 (hPiezo1)): responded to Jedi1 as well | Ca2+ response of loop deletion mutants [1]: no dose-dependent Ca^2+ responses | compound-evoked Ca2+ responses of L1342/L1345 mutants [2]: completely lost
